The values below come from patent US9193697B2, “Oxazole derivatives useful as modulators of FAAH” (MERCK SHARP & DOHME CORP., priority 2010, dated 2015).

Assay [1] has as its target T1, human FAAH (Fatty Acid Amide Hydrolase) (Homo sapiens (Human), UniProt O00519). In words: FAAH inhibition, human FAAH CHO cell lysate (AAMCA fluorescence). The assay is classed as biochemical. The source says:
To assist in assay development stable cell lines for human, murine and rat full length FAAH were developed. […] The full length FAAH was subcloned into the mammalian expression vector, pcDEF.neo, using XbaI and EcoRI restriction sites and used for stable cell line generation.
The full length murine FAAH was subcloned into the mammalian expression vector, pcDEFneo using either EcoRI (murine) or KpnI and EcoRI (rat) restriction sites. Chinese hamster ovary cells (CHO) were transfected following manufacturers protocol (AMAXA). Forty eight hours post transfection, cells were trypsinized and transferred to 96 well plates in Iscove's DMEM media supplemented with 2 mM Glutamine, 10% fetal calf serum, 1 mg/ml geneticin and HT Supplement (0.1 mM sodium hypoxanthine, 0.016 mM thymidine) in order to isolate single clones. […] Following removal of tissue culture media cells were dislodged following addition of Cellstripper (Mediatech, Inc. Manassas, Va.) and transferred to 96 well black clear bottom assay plate, centrifuged at 1,000 rpm for 3 mins and media removed and replaced with assay buffer (50 mM Tris pH8.0, 1 mM EDTA, 0.1% fatty acid free BSA). The reaction was initiated by addition of fluorescent substrate, AMC Arachidonoyl Amide (Cayman Chemical, Ann Arbor, Mich.) to 1 μM and reaction allowed to proceed for 2 hours at room temperature. Release of fluorescence was monitored in a CytoFluor Multiplate Reader.
CHO cells expressing FAAH were used to prepare either crude cell lysate or microsome fractions. To harvest cells, tissue culture media was decanted, the monolayer washed three times with Ca^++Mg^++ free PBS and cells recovered after 15 min in enzyme free dissociation media (Millipore Corp, Billerica, Mass.). Cells were collected by centrifuging at 2000 rpm for 15 min, and the cell pellet re-suspended with 50 mM HEPES (pH 7.4) containing 1 mM EDTA and the protease inhibitors aprotinin (1 mg/ml) and leupeptin (100 μM). The suspension was sonicated at 4° C. and the cell lysate recovered after centrifuging at 12,000×g (14,600 rpm, SS34 rotor) for 20 min at 4° C. to form a crude pellet of cell debris, nuclei, peroxisomes, lysosomes, and mitochondria; the supernatant or cell lysate was used for FAAH enzyme assay. In some eases, microsomes fractions enriched in FAAH were prepared by centrifuging the cell lysate further at 27,000 rpm (100,000×g) in SW28 rotor for 50 minutes at 4° C. The pellet containing FAAH-enriched microsomes was re-suspend in 50 mM HEPES, (pH 7.4) 1 mM EDTA, and any remaining DNA sheared by passage of material through a 23 gauge needle and aliquots of enzyme were store at −80° C. prior to use.
Assays are performed on either cell lysate or microsome fractions prepared as described or in whole cell format employing either the fluorescent substrate AAMCA (Cayman chemical, Ann Arbor, Mich.,) or ^3H-anandamide ([ETHANOLAMINE-1-3H] American Radiolabeled Chemicals; 1 mCi/ml). […] AAMCA substrate was used to achieve a final concentration of 1 μM and reaction allowed to proceed at room temperature for 1-3 hours. […] Whole cell assay is conducted with cells harvested after rinsing tissue culture flasks three times with Ca^++Mg^++ free PBS, incubating for 10 min in Enzyme free dissociation media and centrifuging for 5 minutes at 1,000 rpm in table top centrifuge. Cells are resuspended in assay buffer at desired cell number in (4×10^4 cells/assay in 96-well format; 1×10^4 cells/assay in 384-well format) and assayed as described.
Alternatively, assays are performed using anandamide [ethanolamine 1-^3H] (specific activity of 10 Ci/mmol) diluted with cold anandamide to achieve a final assay concentration of 1 μM anandamide (˜50,000 cpm). Enzyme (CHO cell lysate, brain or liver homogenate) is incubated in assay buffer (50 mM Phosphate, pH 8.0, 1 mM EDTA, 200 mM KCl, 0.2% glycerol, 0.1% fatty acid free BSA) with inhibitor at 25° C. for 30 minutes.

Assay [2] concerns the target T1, human FAAH (Fatty Acid Amide Hydrolase). In words: FAAH inhibition, human FAAH CHO whole cell format. The assay is classed as cell-based.

T1 sequence (O00519 whole entry): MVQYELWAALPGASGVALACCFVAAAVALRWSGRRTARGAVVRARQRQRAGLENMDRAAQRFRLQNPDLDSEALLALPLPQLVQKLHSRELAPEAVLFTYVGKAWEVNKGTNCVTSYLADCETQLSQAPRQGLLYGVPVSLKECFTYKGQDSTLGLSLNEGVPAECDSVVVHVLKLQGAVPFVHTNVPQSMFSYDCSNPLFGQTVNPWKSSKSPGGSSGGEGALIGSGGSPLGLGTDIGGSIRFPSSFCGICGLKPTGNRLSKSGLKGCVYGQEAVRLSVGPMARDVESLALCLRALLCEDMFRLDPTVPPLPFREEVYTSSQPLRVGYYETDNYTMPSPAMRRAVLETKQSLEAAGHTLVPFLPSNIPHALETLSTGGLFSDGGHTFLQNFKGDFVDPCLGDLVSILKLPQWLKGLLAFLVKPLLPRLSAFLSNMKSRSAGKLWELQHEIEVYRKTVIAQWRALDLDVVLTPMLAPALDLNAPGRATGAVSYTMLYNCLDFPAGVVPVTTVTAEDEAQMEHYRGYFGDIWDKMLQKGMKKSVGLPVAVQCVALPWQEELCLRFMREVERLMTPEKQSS

In the case of `CCOC(=O)N1CCC(c2nc(-c3ccc([S+](C)[O-])cc3)c(Sc3ccc(Cl)cn3)o2)CC1` (stereo not drawn) [Example A7.23, ethyl 4-{5-[(5-chloropyridin-2-yl)sulfanyl]-4-[4-(methylsulfinyl)phenyl]-1,3-oxazol-2-yl}piperidine-1-carboxylate], the IC50 in assay [1] was determined as 61.7 nM; in assay [2], 436 nM.
The like results for `Clc1ccc(Sc2oc(C3CCOCC3)nc2-c2cnc3cc[nH]c3c2)cc1` [Example B5.12, 6-{5-[(4-chlorophenyl)sulfanyl]-2-(tetrahydro-2H-pyran-4-yl)-1,3-oxazol-4-yl}-1H-pyrrolo[3,2-b]pyridine] were, in that order, 113 nM and 279 nM.
On the same counts, the results for `C[S+]([O-])c1ccc(-c2nc(C3CCN(C(=O)Oc4ccccc4)CC3)oc2Sc2ccc(Cl)cn2)cc1` (stereo not drawn) [Example A7.21, phenyl 4-{5-[(5-chloropyridin-2-yl)sulfanyl]-4-[4-(methylsulfinyl)phenyl]-1,3-oxazol-2-yl}piperidine-1-carboxylate] are 25.9 nM and 124 nM.
On the same counts, the results for `CC(C)(O)c1ccc(-c2nc(C3CCOCC3)oc2Sc2ccc(Cl)cc2)cn1` [Example B5.1, 2-(5-{5-[(4-chlorophenyl)sulfanyl]-2-(tetrahydro-2H-pyran-4-yl)-1,3-oxazol-4-yl}pyridin-2-yl)propan-2-ol] are 17.9 nM and 45.1 nM.
As for `C[S+]([O-])c1ccc(-c2nc(C3CCN(C(=O)OC(C)(C)C)CC3)oc2Sc2ccc(Cl)cn2)cc1` (stereo not drawn) [Example A7.13, tert-butyl 4-{5-[(5-chloropyridin-2-yl)sulfanyl]-4-[4-(methylsulfinyl)phenyl]-1,3-oxazol-2-yl}piperidine-1-carboxylate], the results for the 50% inhibitory concentration (IC50) in assay [1] and in assay [2] were 67.5 nM and 771 nM, respectively.
For the compound `C[S+]([O-])c1ccc(-c2nc(C3CCN(C(=O)OCCN4CCOCC4)CC3)oc2Sc2ccc(Cl)cn2)cc1` (stereo not drawn) [Example A7.27, 2-(morpholin-4-yl)ethyl 4-{5-[(5-chloropyridin-2-yl)sulfanyl]-4-[4-(methylsulfinyl)phenyl]-1,3-oxazol-2-yl}piperidine-1-carboxylate], the 50% inhibitory concentration (IC50) in assay [1] worked out at 482 nM; in assay [2], 5010 nM.
